Experiments:
[1] = CoQ10H2 and TQ10 in paired heparin versus EDTA plasma samples by HPLC-EC; type: physicochemical, human
Experimental: (§1) According to the present invention, venous blood is collected into a VACUTAINER containing heparin as anticoagulant and mixed gently by inversion 5-6 times. At this point the blood-heparin tube is securely capped, and is then placed in ice and/or kept in refrigeration prior to processing. The blood-heparin tube should be processed within 4 hours. Blood samples should not be collected in tubes containing metal chelators, such as ethylenediaminetetraacetic acid (EDTA). The blood-heparin tube is subject to centrifugation at an appropriate speed such as 3000 rpm for 10 minutes at 4° C. Heparinized plasma is separated from red blood cells and placed in a capped polypropylene tube and immediately stored at −75° C. or below until analysis.
Each frozen sample is thawed at room temperature, and 100 μl of this sample is placed in a 1.5-ml capped polypropylene tube containing 50 μl of internal standard solution (CoQ9, 2 μg/mL in 1-propanol). All the tubes are kept in an ice-bath. This is mixed with 850 μl of cold 1-propanol. The tubes are vortexed for 2 minutes on a mechanical vortexer and centrifuged for 10 min at 0-4° C. The resulting supernatant is separated from the precipitate and transferred to an autosampler glass vial. The sample vial is immediately placed in the autosampler tray at 0-4° C. […] Twenty samples can be analyzed sequentially, within 4 hours. […]

[2] = Stability of CoQ10H2 in refrigerated blood samples in vacutainers; type: physicochemical, human
Experimental: When blood samples in vacutainers are opened and kept refrigerated, the CoQ10H2:TQ10 ratios (n=30) in EDTA samples decreased by ˜30% over 7 h, whereas the CoQ10H2:TQ10 ratios in heparinized samples were stable over the same period with variation of less than 3% (median 0.949; range 0.927-0.970; n=30). There was as significant difference of CoQ10H2:TQ10 ratios in heparin in EDTA (P=0.028). The observed findings therefore reflect the effect of air-exposure on EDTA samples during the blood sampling procedure. The results also indicate that delays, in processing and analyzing EDTA samples would result in lowered and variable CoQ10H2:TQ10 ratios.
CoQ10H2 is not stable and is oxidized in air at room temperature. CoQ10H2 is unstable in whole blood, plasma and n-propanol extract when EDTA is used as anticoagulant. EDTA-anticoagulated blood loses approximately 15% of CoQ10H2 within 4 hours when stored in refrigeration (4° C.), whereas only <1% loss of CoQ10H2 occurs in heparin-anticoagulated blood under the same conditions (FIG. 6). When fresh blood samples in closed heparin vacutainers are kept refrigerated, no significant difference in CoQ10H2:TQ10 ratios was observed between samples stored for 0 h and 24 h (P=0.052). The median CoQ10H2:TQ10 ratio stored for 24 h was 0.955 (range 0.923-0.972; n=8) in comparison to the initial value of 0.964 (range 0.935-0.978; n=8). The CoQ10H2:TQ10 ratios decreased by ˜6% after 48 h and by ˜28% after 72 h. Storage of blood specimens in VACUTAINERS at +4° C. […] Okamoto et al reported the percentage of CoQ10H2 with respect to the TQ10 was constant in plasma for one day when kept at 2° C. and −10° C.

[3] = Stability of CoQ10H2 in frozen plasma; type: physicochemical, human; conditions: plasma kept frozen at −75° C. or below
Experimental: as §1
CoQ10H2 is not stable and is oxidized in air at room temperature. CoQ10H2 is unstable in whole blood, plasma and n-propanol extract when EDTA is used as anticoagulant. EDTA-anticoagulated blood loses approximately 15% of CoQ10H2 within 4 hours when stored in refrigeration (4° C.), whereas only <1% loss of CoQ10H2 occurs in heparin-anticoagulated blood under the same conditions (FIG. 6). When fresh blood samples in closed heparin vacutainers are kept refrigerated, no significant difference in CoQ10H2:TQ10 ratios was observed between samples stored for 0 h and 24 h (P=0.052). […]

[4] = Stability of CoQ10H2 in 1-propanol extract; type: physicochemical, human
Experimental: Each frozen sample is thawed at room temperature, and 100 μl of this sample is placed in a 1.5-ml capped polypropylene tube containing 50 μl of internal standard solution (CoQ9, 2 μg/mL in 1-propanol). All the tubes are kept in an ice-bath. This is mixed with 850 μl of cold 1-propanol. The tubes are vortexed for 2 minutes on a mechanical vortexer and centrifuged for 10 min at 0-4° C. The resulting supernatant is separated from the precipitate and transferred to an autosampler glass vial. The sample vial is immediately placed in the autosampler tray at 0-4° C. A batch of up to 20 samples can be extracted and processed at the same time. An aliquot of 20 μl of 1-propanol extract from a vial is injected immediately onto an automated HPLC. Twenty samples can be analyzed sequentially, within 4 hours.

[5] = Solubility in 1-propanol relative to other alcohols; type: physicochemical
Description: Using 1-propanol as an extracting solvent allows fast and simple sample processing. The procedure has been simplified to a single extraction and no evaporation process is needed. This allows for efficient sample handling. Extraction of CoQ10H2 and CoQ10 from a variety of biological matrices is made facile with 1-propanol, because it can be mixed with water in any proportion. […] Thus, 1-propanol is an effective extraction solvent (Table 2). The 1-propanol extract can be directly analyzed by the described HPLC-EC method. Furthermore, this procedure takes advantage of the use of CoQ9 as an internal standard. Because the levels of CoQ9 in human blood are negligible, it is desirable to spike control samples with this CoQ9 to validate the extraction process.

[6] = cited from earlier work

COc1c(O)c(C)c(C/C=C(\C)CC/C=C(\C)CC/C=C(\C)CC/C=C(\C)CC/C=C(\C)CC/C=C(\C)CC/C=C(\C)CC/C=C(\C)CC/C=C(\C)CCC=C(C)C)c(O)c1OC [CoQ10H2]
mean ratio of CoQ10H2:TQ10 ([1]; EDTA-plasma): 91.5(±4.4) %
mean ratio of CoQ10H2:TQ10 ([1]; heparinized plasma): 97.0(±1.4) %
decrease of CoQ10H2:TQ10 ratio ([2]; EDTA blood, vacutainers opened, refrigerated, over 7 h, n=30): ~30%
loss of CoQ10H2 ([2]; EDTA-anticoagulated blood, within 4 hours, 4° C.): approximately 15%
loss of CoQ10H2 ([2]; blood in VACUTAINERS at +4° C., 24 hours): < 3%
time CoQ10H2 is stable ([2]; blood in closed heparin VACUTAINERS kept refrigerated): at least 24 hours
median CoQ10H2:TQ10 ratio ([2]; closed heparin vacutainers, initial value (0 h), n=8): 0.964
decrease of CoQ10H2:TQ10 ratio ([2]; closed heparin vacutainers, refrigerated, after 48 h): ~6%
decrease of CoQ10H2:TQ10 ratio ([2]; closed heparin vacutainers, refrigerated, after 72 h): ~28%
median CoQ10H2:TQ10 ratio ([2]; closed heparin vacutainers, refrigerated, stored for 24 h, n=8): 0.955
loss of CoQ10H2 ([2]; heparin-anticoagulated blood, within 4 hours, 4° C.): < 1%
variation of CoQ10H2:TQ10 ratio ([2]; heparinized blood, vacutainers opened, refrigerated, over 7 h): less than 3%
median CoQ10H2:TQ10 ratio ([2]; heparinized blood, vacutainers opened, refrigerated, over 7 h, n=30): 0.949
time CoQ10H2 is stable [3]: at least 6 months
loss of CoQ10H2 ([4]; in 5 hours, 0-4° C.): 1%
CoQ10H2 oxidized ([4]; in an hour, room temperature): 3.75%
rate of CoQ10H2 oxidation ([4]; room temperature): ~2 nM/min
solubility in alcohols [5]: highest solubility in 1-propanol
stability in ethanol solution ([6]; extracted from plasma, prepared in ethanol solution (Okamoto et al)): rapidly oxidized
percentage of CoQ10H2 with respect to the TQ10 ([6]; plasma, one day, 2° C. and −10° C. (Okamoto et al)): constant
rate of spontaneous oxidation to CoQ10 ([6]; room temperature): ~2 nM per min

COC1=C(OC)C(=O)C(C/C=C(\C)CC/C=C(\C)CC/C=C(\C)CC/C=C(\C)CC/C=C(\C)CC/C=C(\C)CC/C=C(\C)CC/C=C(\C)CC/C=C(\C)CCC=C(C)C)=C(C)C1=O [CoQ10, ubiquinone-10, reference compound]
solubility in alcohols [5]: highest solubility in 1-propanol
